This note sets out measurements from ChEMBL document CHEMBL1147305, “Inhibition of protein-tyrosine kinase activity by flavanoids and related compounds” (J Nat Prod, 1989).

The structures appear in SMILES notation. Values after ≈ are worked out from the molar mass of the structure shown. Active and inactive are the calls of the source. No cut-off for these calls is given here.

For this test, the species on record is Bos taurus. Kind of test: Inhibition of bovine thymocytes protein tyrosine kinase assessed as angiotensin 1 phosphorylation.
`COc1ccc(-c2cc(=O)c3c(O)cc(OC)cc3o2)cc1`: the ID50 was above 500 µg/mL. As to `O=c1c(O)c(-c2ccc(O)c(O)c2)oc2cc(O)cc(O)c12`, the ID50 was determined as 11 µg/mL (≈ 36.4 µM). As to `COc1cc(C(=O)O)cc(OC)c1O`, the ID50 is above 500 µg/mL. Same read-out and setting: the same measure for `O=c1cc(-c2ccc(O)cc2)oc2cc(O)cc(O)c12`: 90 µg/mL (≈ 333 µM); for `O=C1CC(c2ccccc2)Oc2cc(O)ccc21` (stereo not drawn): above 500 µg/mL.

Regarding `O=C1c2ccc(O)cc2O[C@H](c2ccc(O)c(O)c2)[C@H]1O`, the ID50 is above 500 µg/mL. On the same count and under the same terms, the same measure for `O=c1c(-c2ccc(O)cc2)coc2cc(O)c(O)cc12`: above 500 µg/mL; for `O=c1c(O)c(-c2ccc(O)c(O)c2)oc2cc(O)ccc12`: 35 µg/mL (≈ 122 µM).

As for `COc1ccc(-c2cc(=O)c3c(O)cc(O)cc3o2)cc1`, the ID50 stood at 300 µg/mL (≈ 1060 µM).

Take `O=c1c(-c2ccc(O)cc2)coc2cc(O)cc(O)c12`: the ID50 is above 500 µg/mL. On the same count and under the same terms, the same measure for `O=C(O)/C=C/c1ccc(O)cc1`: 450 µg/mL (≈ 2740 µM); for `COc1ccc(-c2oc3cc(OC)cc(O)c3c(=O)c2OC)cc1`: above 500 µg/mL; for `COc1ccc(-c2cc(=O)c3c(O)c(OC)c(O)c(OC)c3o2)cc1`: 48 µg/mL (≈ 139 µM). Same read-out and setting: then `COc1ccc(-c2coc3cc(O)cc(O)c3c2=O)cc1`, with above 500 µg/mL; and `COc1ccc(-c2oc3cc(O)cc(O)c3c(=O)c2OC)cc1`, with above 500 µg/mL. The same measure, in the same setting: then `O=C1c2c(O)cc(O)cc2O[C@H](c2ccc(O)c(O)c2)[C@H]1O`, with 270 µg/mL (≈ 887 µM). As to `COc1cc(/C=C/C(=O)O)ccc1O`, the ID50 turned out to be 350 µg/mL (≈ 1800 µM). The same measure, in the same setting: the same measure for `O=c1c(O)c(-c2cc(O)c(O)c(O)c2)oc2cc(O)cc(O)c12`: 11 µg/mL (≈ 34.6 µM); for `O=C1C[C@@H](c2ccc(O)cc2)Oc2cc(O)cc(O)c21`: 80 µg/mL (≈ 294 µM).

For `O=c1cc(-c2ccccc2)oc2ccc3ccccc3c12`, the outcome was inactive. For the compound `O=c1c(O)c(-c2cc(O)c(O)c(O)c2)oc2cc(O)ccc12`, the ID50 came to 7 µg/mL (≈ 23.2 µM). Still for that read-out and setting: the same measure for `O=C1C[C@@H](c2ccccc2)Oc2cc(O)cc(O)c21`: above 500 µg/mL; for `C[C@H]1O[C@@H](Oc2c(-c3cc(O)c(O)c(O)c3)oc3cc(O)cc(O)c3c2=O)[C@@H](O)[C@@H](O)[C@@H]1O`: above 500 µg/mL.
